A word on the inhibition: it is the percentage by which the read-out fell short of the control. In general, IC50 refers to the concentration that inhibits the measured activity by half.

In one assay the target is T1, purified human zDHHC2 (Homo sapiens, UniProt Q9UIJ5).
T1 construct: StrepII (C); made in house; host or cells: Sf9 TriEX insect cells, baculovirus
T1 sequence (Q9UIJ5 1-367): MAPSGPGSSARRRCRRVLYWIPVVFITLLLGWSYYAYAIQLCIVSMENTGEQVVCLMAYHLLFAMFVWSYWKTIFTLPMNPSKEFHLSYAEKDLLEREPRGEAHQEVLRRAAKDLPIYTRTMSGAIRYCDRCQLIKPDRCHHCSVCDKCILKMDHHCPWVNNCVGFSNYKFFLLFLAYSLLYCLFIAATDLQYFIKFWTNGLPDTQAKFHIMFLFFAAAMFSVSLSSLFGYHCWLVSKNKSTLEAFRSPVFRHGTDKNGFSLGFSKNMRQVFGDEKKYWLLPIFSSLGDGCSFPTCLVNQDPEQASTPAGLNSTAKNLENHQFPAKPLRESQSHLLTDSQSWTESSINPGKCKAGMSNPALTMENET
Put plainly: In vitro SNAP25 S-acylation by purified zDHHC2, copper-free click chemistry, ELISA. Format: biochemical. Conditions: for inhibition at 3 µM / inhibition at 10 µM: in vitro ELISA, UoS, read-out: zDHHC2-mediated SNAP25 S-acylation inhibition (%); for inhibition at 3 µM: compound 3 μM; for inhibition at 10 µM: compound 10 μM; for IC50 / SNAP25 S-acylation by purified zDHHC2, SDS-PAGE and Western blotting: in vitro; for IC50: ELISA, concentrations 0.3 to 30 μM, read-out: zDHHC2-mediated substrate (SNAP25) S-acylation IC50 (95 CI); for SNAP25 S-acylation by purified zDHHC2, SDS-PAGE and Western blotting: selected samples at 3 or 10 μM.

For assay [1], the system named is endogenous SNAP23 S-acylation in HEK293T cells. The experiment in a line: mPEG-click S-acylation of endogenous SNAP23 in HEK293T cells. Conditions: 25 and 50 μM, 4 h pretreatment + 4 h labeling. In kind it is cell-based, human. From the text: Finally, we tested whether TTZ-1 and TTZ-2 were able to block the S-acylation of endogenous proteins in the absence of zDHHC enzyme overexpression. In order to detect the S-acylation of endogenous proteins, we used mPEG-click, a technique that we developed recently ([49]) that is better suited for the click chemistry–based analysis of S-acylation of endogenously expressed proteins. In this assay, cells are labeled with either palmitate (C16:0), or C16:0-azide, lysed, and then subjected to click chemistry with alkyne-mPEG 5K. The addition of mPEG 5K moieties to S-acylated proteins increases their apparent molecular weight, which can be detected directly by immunoblotting. HEK293T cells were pretreated for 4 h with either TTZ-1 or TTZ-2 at 25 and 50 μM and then labeled with fatty acids for another 4 h in the presence of the compounds. We first assessed the S-acylation of endogenous SNAP23 as it is a close relative of SNAP25 (SNAP25 is not expressed in the non-neuronal HEK293T cell line) ([50], [51]). […]
Figure 10 Activity of TTZ-1 and TTZ-2 against the S-acylation of endogenous proteins in mammalian cells. […] The data were quantified, and the graphs below each set of membranes show mean ± SEM of normalized S-acylation of either endogenous SNAP23 (A) or endogenous calnexin (B). […]

As to `CCCCCCCOc1ccc(C(=O)Nc2cccc3c2OC(c2nnn[nH]2)CN3)cc1` (stereo not shown) [TTZ-1, N-(2-(1H-Tetrazol-5-yl)-3,4-dihydro-2H-benzo[b][1,4]oxazin-8-yl)-4-(heptyloxy)benzamide], on purified human zDHHC2, the inhibition at 3 µM was found to be 30%; the inhibition at 10 µM was determined as 77%; the IC50 was determined as 4.7 µM; the “SNAP25 S-acylation by purified zDHHC2, SDS-PAGE and Western blotting” value is on record as “confirmed the inhibitory activity”. The “S-acylation of endogenous SNAP23” value in assay [1] is given as “significant reduction”.

As to `O=C(Nc1cccc2c1OC(c1nnn[nH]1)CN2)c1ccc(OCCCCc2ccccc2)cc1` (stereo not shown) [TTZ-2, N-(2-(1H-Tetrazol-5-yl)-3,4-dihydro-2H-benzo[b][1,4]oxazin-8-yl)-4-(4-phenylbutoxy)benzamide], at purified human zDHHC2, the inhibition at 3 µM is 64%; the inhibition at 10 µM was determined as 81%; the IC50 came out at 1.3 µM; the “SNAP25 S-acylation by purified zDHHC2, SDS-PAGE and Western blotting” value is “confirmed the inhibitory activity”. Moreover, the “S-acylation of endogenous SNAP23” value in assay [1] is “significant reduction”.
